Test system: MV-4-11 cells
Experiment: Gene expression microarray analysis (Affymetrix PrimeView) and GSEA
Assay type: cell-based, human
Design: RFU PODN (11730768_x_at) / Fold change /veh PODN (11730768_x_at) / RFU LINC00158 (11744669_a_at) / Fold change /veh LINC00158 (11744669_a_at) / RFU DUSP10 (11751237_a_at) / Fold change /veh DUSP10 (11751237_a_at) / RFU ID3 (11757404_x_at) / Fold change /veh ID3 (11757404_x_at) / RFU PLEKHG5 (11737974_s_at) / Fold change /veh PLEKHG5 (11737974_s_at) / RFU LRRC4B (11730491_at) / Fold change /veh LRRC4B (11730491_at) / RFU GIMAP4 (11747438_a_at) / Fold change /veh GIMAP4 (11747438_a_at) / RFU KRT8 (11758183_x_at) / Fold change /veh KRT8 (11758183_x_at) / RFU CNN1 (11734310_a_at) / Fold change /veh CNN1 (11734310_a_at) / RFU VPS37D (11726825_at) / Fold change /veh VPS37D (11726825_at) / RFU C10orf10 (11716522_x_at) / Fold change /veh C10orf10 (11716522_x_at) / RFU KIR2DL2 /// KIR2DL4 /// KIR2DL5A /// KIR2DL5B /// KIR2DS1 /// KIR2DS2 /// KIR2DS3 /// KIR2DS4 /// KIR3DL3 /// KIR3DL3 /// KIR3DS1 (11738374_at) / Fold change /veh KIR2DL2 /// KIR2DL4 /// KIR2DL5A /// KIR2DL5B /// KIR2DS1 /// KIR2DS2 /// KIR2DS3 /// KIR2DS4 /// KIR3DL3 /// KIR3DL3 /// KIR3DS1 (11738374_at) / RFU C1QL1 (11718748_at) / Fold change /veh C1QL1 (11718748_at) / RFU TMPRSS4 (11747572_a_at) / Fold change /veh TMPRSS4 (11747572_a_at) / RFU HAMP (11756126_x_at) / Fold change /veh HAMP (11756126_x_at) / RFU RNFT2 (11725882_a_at) / Fold change /veh RNFT2 (11725882_a_at) / RFU NR4A2 (11747474_a_at) / Fold change /veh NR4A2 (11747474_a_at) / RFU ABCC12 (11746883_a_at) / Fold change /veh ABCC12 (11746883_a_at) / RFU TMEM136 (11760407_x_at) / Fold change /veh TMEM136 (11760407_x_at) / RFU CLDN22 /// WWC2 (11732394_at) / Fold change /veh CLDN22 /// WWC2 (11732394_at) / RFU HLA-DPB1 (11760878_x_at) / Fold change /veh HLA-DPB1 (11760878_x_at) / RFU SPINT1 (11716480_a_at) / Fold change /veh SPINT1 (11716480_a_at) / RFU GAP43 (11754022_s_at) / Fold change /veh GAP43 (11754022_s_at) / RFU A4GNT (11735810_at) / Fold change /veh A4GNT (11735810_at) / RFU PRB3 (11715151_x_at) / Fold change /veh PRB3 (11715151_x_at) / RFU TUBB4B (11761932_at) / Fold change /veh TUBB4B (11761932_at) / RFU CAPN14 (11732068_a_at) / Fold change /veh CAPN14 (11732068_a_at) / RFU TMCC2 (11721928_a_at) / Fold change /veh TMCC2 (11721928_a_at) / RFU IRGQ (11745062_a_at) / Fold change /veh IRGQ (11745062_a_at) / RFU FAM174B (11720279_a_at) / Fold change /veh FAM174B (11720279_a_at) / RFU TMPRSS4 (11748680_a_at) / Fold change /veh TMPRSS4 (11748680_a_at) / RFU FAM212B (11763350_a_at) / Fold change /veh FAM212B (11763350_a_at) / RFU PLEKHG5 (11743358_a_at) / Fold change /veh PLEKHG5 (11743358_a_at) / RFU ZSCAN30 (11745921_a_at) / Fold change /veh ZSCAN30 (11745921_a_at) / RFU CMKLR1 (11741424_a_at) / Fold change /veh CMKLR1 (11741424_a_at) / RFU LOC101060620 /// MAPK8IP1 (11723275_at) / Fold change /veh LOC101060620 /// MAPK8IP1 (11723275_at) / RFU SPTSSB (11747773_x_at) / Fold change /veh SPTSSB (11747773_x_at) / RFU PRSS12 (11739890_at) / Fold change /veh PRSS12 (11739890_at) / RFU BIN1 (11741810_x_at) / Fold change /veh BIN1 (11741810_x_at) / RFU WNT11 (11732464_a_at) / Fold change /veh WNT11 (11732464_a_at) / RFU C10orf10 (11716521_a_at) / Fold change /veh C10orf10 (11716521_a_at) / RFU C5orf56 (11738089_at) / Fold change /veh C5orf56 (11738089_at) / RFU CYB561 (11721691_x_at) / Fold change /veh CYB561 (11721691_x_at) / RFU ANKRD19P (11752326_a_at) / Fold change /veh ANKRD19P (11752326_a_at) / RFU OR2T12 /// OR2T33 /// OR2T8 (11738714_s_at) / Fold change /veh OR2T12 /// OR2T33 /// OR2T8 (11738714_s_at) / RFU VCAN (11748164_a_at) / Fold change /veh VCAN (11748164_a_at) / RFU JSRP1 (11732532_at) / Fold change /veh JSRP1 (11732532_at) / RFU KRTAP10-11 (11738290_x_at) / Fold change /veh KRTAP10-11 (11738290_x_at) / RFU MYO3A (11730013_a_at) / Fold change /veh MYO3A (11730013_a_at) / RFU EBF3 (11725865_a_at) / Fold change /veh EBF3 (11725865_a_at) / RFU CAMK2N1 (11719241_x_at) / Fold change /veh CAMK2N1 (11719241_x_at) / RFU C5orf56 (11738088_a_at) / Fold change /veh C5orf56 (11738088_a_at) / RFU OLFML3 (11715873_a_at) / Fold change /veh OLFML3 (11715873_a_at) / RFU LOC100653217 /// NTM (11731650_a_at) / Fold change /veh LOC100653217 /// NTM (11731650_a_at) / RFU MAPK11 (11762145_a_at) / Fold change /veh MAPK11 (11762145_a_at) / RFU FIZ1 (11724087_x_at) / Fold change /veh FIZ1 (11724087_x_at) / RFU OASL (11726364_x_at) / Fold change /veh OASL (11726364_x_at) / RFU SOX15 (11748057_x_at) / Fold change /veh SOX15 (11748057_x_at) / RFU CD79A (11719716_a_at) / Fold change /veh CD79A (11719716_a_at) / RFU HIST1H1D (11736915_at) / Fold change /veh HIST1H1D (11736915_at) / RFU CASKIN2 (11723855_a_at) / Fold change /veh CASKIN2 (11723855_a_at) / RFU LOC730098 (11760151_x_at) / Fold change /veh LOC730098 (11760151_x_at) / RFU OR4N2 (11742367_at) / Fold change /veh OR4N2 (11742367_at) / RFU PRRT2 (11749266_a_at) / Fold change /veh PRRT2 (11749266_a_at) / RFU SNX32 (11753110_a_at) / Fold change /veh SNX32 (11753110_a_at) / RFU CDHR5 (11726645_a_at) / Fold change /veh CDHR5 (11726645_a_at) / RFU RCAN1 (11760418_a_at) / Fold change /veh RCAN1 (11760418_a_at) / RFU FAM167A (11723789_a_at) / Fold change /veh FAM167A (11723789_a_at) / RFU FAM26E (11764081_at) / Fold change /veh FAM26E (11764081_at) / RFU ISYNA1 (11749810_s_at) / Fold change /veh ISYNA1 (11749810_s_at) / RFU ACY1 (11761880_at) / Fold change /veh ACY1 (11761880_at) / RFU 11764098_at / Fold change /veh 11764098_at / RFU SAMD14 (11745864_x_at) / Fold change /veh SAMD14 (11745864_x_at) / RFU NPB (11741838_a_at) / Fold change /veh NPB (11741838_a_at) / RFU TMPRSS6 (11731388_a_at) / Fold change /veh TMPRSS6 (11731388_a_at) / RFU KRTAP10-2 (11738614_at) / Fold change /veh KRTAP10-2 (11738614_at) / RFU ARHGAP8 /// PRR5-ARHGAP8 (11727945_x_at) / Fold change /veh ARHGAP8 /// PRR5-ARHGAP8 (11727945_x_at) / RFU KRTAP5-7 /// NADSYN1 (11734609_at) / Fold change /veh KRTAP5-7 /// NADSYN1 (11734609_at) / RFU RASL12 (11751679_a_at) / Fold change /veh RASL12 (11751679_a_at) / RFU CDKN2B (11736163_a_at) / Fold change /veh CDKN2B (11736163_a_at) / RFU PRF1 (11729649_at) / Fold change /veh PRF1 (11729649_at) / RFU, ZNF638 /// ZNF638-IT1 / Fold change vs veh, ZNF638 /// ZNF638-IT1 / RFU, PANK3 / Fold change vs veh, PANK3 / RFU, SH3YL1 / Fold change vs veh, SH3YL1 / RFU, ZEB2 / Fold change vs veh, ZEB2 / RFU, NRIP1 / Fold change vs veh, NRIP1 / RFU, PTTG1IP / Fold change vs veh, PTTG1IP / RFU, CAPN2 / Fold change vs veh, CAPN2 / RFU, MED14 / Fold change vs veh, MED14 / RFU, SNORA58 / Fold change vs veh, SNORA58 / RFU, C1orf63 / Fold change vs veh, C1orf63 / RFU, LRRFIP1 / Fold change vs veh, LRRFIP1 / RFU, NDUFAF7 / Fold change vs veh, NDUFAF7 / RFU, SLC12A2 / Fold change vs veh, SLC12A2 / RFU, IBTK / Fold change vs veh, IBTK / RFU, ESF1 / Fold change vs veh, ESF1 / Fold change vs veh, TMEM50B / RFU, TAOK1 / Fold change vs veh, TAOK1 / RFU, ACBD3 / Fold change vs veh, ACBD3 / RFU, TMA16 / Fold change vs veh, TMA16 / RFU, RWDD3 / Fold change vs veh, RWDD3 / RFU, BCAT1 / Fold change vs veh, BCAT1 / RFU, EDEM3 / Fold change vs veh, EDEM3 / RFU, TMEM33 / Fold change vs veh, TMEM33 / RFU, WDR75 / Fold change vs veh, WDR75 / RFU, AHCTF1 / Fold change vs veh, AHCTF1 / RFU, TFRC / Fold change vs veh, TFRC / RFU, ZDHHC17 / Fold change vs veh, ZDHHC17 / RFU, NOM1 / Fold change vs veh, NOM1 / RFU, ARL8B / Fold change vs veh, ARL8B / RFU, ZBTB11 / Fold change vs veh, ZBTB11 / RFU, TAMM41 / Fold change vs veh, TAMM41 / RFU, KIAA1704 /// LOC100996395 / Fold change vs veh, KIAA1704 /// LOC100996395 / RFU, ING1 / Fold change vs veh, ING1 / RFU, TRMT61B / Fold change vs veh, TRMT61B / RFU, FUBP3 / Fold change vs veh, FUBP3 / RFU, TP53 / Fold change vs veh, TP53 / RFU, TNKS2 / Fold change vs veh, TNKS2 / RFU, ZFP14 / Fold change vs veh, ZFP14 / RFU, ACTR2 / Fold change vs veh, ACTR2 / RFU, PPP3R1 / Fold change vs veh, PPP3R1 / RFU, PIK3R1 / Fold change vs veh, PIK3R1 / RFU, HNRNPA1 / Fold change vs veh, HNRNPA1 / RFU, RNF170 / Fold change vs veh, RNF170 / RFU, ZNF28 / Fold change vs veh, ZNF28 / RFU, RNGTT / Fold change vs veh, RNGTT / RFU, OGT / Fold change vs veh, OGT / RFU, BRD1 / Fold change vs veh, BRD1 / RFU, MARS / Fold change vs veh, MARS / RFU, ZNF655 / Fold change vs veh, ZNF655 / RFU, FAHD1 / Fold change vs veh, FAHD1 / RFU, BDP1 / Fold change vs veh, BDP1 / RFU, LRRCC1 / Fold change vs veh, LRRCC1 / RFU, ARID1A / Fold change vs veh, ARID1A / RFU, ZNF146 / Fold change vs veh, ZNF146 / RFU, ZNF330 / Fold change vs veh, ZNF330 / RFU, GPN3 / Fold change vs veh, GPN3 / RFU, C9orf123 / Fold change vs veh, C9orf123 / RFU, N4BP2L2 / Fold change vs veh, N4BP2L2 / RFU, ARFIP1 / Fold change vs veh, ARFIP1 / RFU, FAM179B / Fold change vs veh, FAM179B / RFU, BCL10 / Fold change vs veh, BCL10 / RFU, UHRF1BP1L / Fold change vs veh, UHRF1BP1L / RFU, BET1 / Fold change vs veh, BET1 / RFU, CNOT2 / Fold change vs veh, CNOT2 / RFU, ZNF268 / Fold change vs veh, ZNF268 / Fold change vs veh, ZNF507 / RFU, DGCR2 / Fold change vs veh, DGCR2 / RFU, WDSUB1 / Fold change vs veh, WDSUB1 / Fold change vs veh, HSP90B1 /// MIR3652 / RFU, ADSS / Fold change vs veh, ADSS / RFU, GK / Fold change vs veh, GK / RFU, ZNF148 / Fold change vs veh, ZNF148 / RFU, TAF9 / Fold change vs veh, TAF9 / RFU, SLC1A5 / Fold change vs veh, SLC1A5 / RFU, SLMO2 / Fold change vs veh, SLMO2 / RFU, ABCC4 / Fold change vs veh, ABCC4 / RFU, LOC101060439 /// RAP1B / Fold change vs veh, LOC101060439 /// RAP1B / RFU, RFX7 / Fold change vs veh, RFX7 / RFU, GTPBP10 / Fold change vs veh, GTPBP10 / RFU, CNEP1R1 / Fold change vs veh, CNEP1R1 / RFU, BIVM-ERCC5 /// ERCC5 / Fold change vs veh, BIVM-ERCC5 /// ERCC5 / RFU, ILF3 / Fold change vs veh, ILF3 / RFU 11762660_at / Fold change /veh 11762660_at / RFU VCAN (11757783_s_at) / Fold change /veh VCAN (11757783_s_at) / RFU DDX43 (11728927_at) / Fold change /veh DDX43 (11728927_at) / RFU KRT8 (11758188_x_at) / Fold change /veh KRT8 (11758188_x_at) / RFU NKD1 (11759106_at) / Fold change /veh NKD1 (11759106_at) / RFU SRD5A1 (11742802_a_at) / Fold change /veh SRD5A1 (11742802_a_at) / RFU TPSAB1 /// TPSB2 (11721975_s_at) / Fold change /veh TPSAB1 /// TPSB2 (11721975_s_at) / RFU GSTM3 (11746129_a_at) / Fold change /veh GSTM3 (11746129_a_at) / RFU IL23R (11737362_x_at) / Fold change /veh IL23R (11737362_x_at) / RFU TMEM51 (11727254_a_at) / Fold change /veh TMEM51 (11727254_a_at) / RFU PIWIL2 (11732686_x_at) / Fold change /veh PIWIL2 (11732686_x_at) / RFU ORM1 (11744905_x_at) / Fold change /veh ORM1 (11744905_x_at) / RFU CCDC152 (11743942_at) / Fold change /veh CCDC152 (11743942_at) / RFU ECM1 (11717891_a_at) / Fold change /veh ECM1 (11717891_a_at) / RFU IL23R (11748794_a_at) / Fold change /veh IL23R (11748794_a_at) / RFU TNFAIP8L3 (11732012_x_at) / Fold change /veh TNFAIP8L3 (11732012_x_at) / RFU MBOAT4 (11741988_at) / Fold change /veh MBOAT4 (11741988_at) / RFU 11764193_at / Fold change /veh 11764193_at / RFU TMEM53 (11763286_at) / Fold change /veh TMEM53 (11763286_at) / RFU MAGEB2 (11727129_at) / Fold change /veh MAGEB2 (11727129_at) / RFU TMEM200A (11744735_a_at) / Fold change /veh TMEM200A (11744735_a_at) / RFU CCDC152 (11751479_a_at) / Fold change /veh CCDC152 (11751479_a_at) / RFU FAM211A (11726209_a_at) / Fold change /veh FAM211A (11726209_a_at) / RFU RGS16 (11746705_a_at) / Fold change /veh RGS16 (11746705_a_at) / RFU VCAN (11755009_s_at) / Fold change /veh VCAN (11755009_s_at) / RFU RHOB (11743442_s_at) / Fold change /veh RHOB (11743442_s_at) / RFU RGS16 (11720943_a_at) / Fold change /veh RGS16 (11720943_a_at) / RFU RGS16 (11720944_at) / Fold change /veh RGS16 (11720944_at) / RFU, VPS4B / Fold change vs veh, VPS4B / RFU, CREB1 / Fold change vs veh, CREB1 / RFU, DNAJC13 / Fold change vs veh, DNAJC13 / RFU, GNAQ / Fold change vs veh, GNAQ / RFU, CDK5R1 / Fold change vs veh, CDK5R1 / RFU, ZRANB3 / Fold change vs veh, ZRANB3 / RFU, CUL4A / Fold change vs veh, CUL4A / RFU, CCNY / Fold change vs veh, CCNY / RFU, UFL1 / Fold change vs veh, UFL1 / RFU, COG3 / Fold change vs veh, COG3 / RFU, DIAPH2 / Fold change vs veh, DIAPH2 / RFU, SKA2 / Fold change vs veh, SKA2 / RFU, AFF3 / Fold change vs veh, AFF3 / RFU, LMF1 / Fold change vs veh, LMF1 / RFU, IPO11 / Fold change vs veh, IPO11 / RFU, DFFB / Fold change vs veh, DFFB / RFU, FOXP1 / Fold change vs veh, FOXP1 / RFU, CARD8 / Fold change vs veh, CARD8 / RFU, STRN3 / Fold change vs veh, STRN3 / RFU, ADK / Fold change vs veh, ADK / RFU, RASSF2 / Fold change vs veh, RASSF2 / RFU, WIPF1 / Fold change vs veh, WIPF1 / RFU, LARP1B / Fold change vs veh, LARP1B / RFU, RASA1 / Fold change vs veh, RASA1 / RFU, RB1 / Fold change vs veh, RB1 / RFU, PPFIA1 / Fold change vs veh, PPFIA1 / RFU, MAT2A / Fold change vs veh, MAT2A / RFU, CCT5 / Fold change vs veh, CCT5 / RFU, WDR92 / Fold change vs veh, WDR92 / RFU, CUX1 / Fold change vs veh, CUX1 / RFU, TTC7A / Fold change vs veh, TTC7A / RFU, TMEM135 / Fold change vs veh, TMEM135 / RFU, DEPTOR / Fold change vs veh, DEPTOR / RFU, CPM / Fold change vs veh, CPM / RFU, DNAJB6 / Fold change vs veh, DNAJB6 / RFU, CACNA2D3 / Fold change vs veh, CACNA2D3 / RFU, DTX4 / Fold change vs veh, DTX4 / RFU, TFCP2 / Fold change vs veh, TFCP2 / RFU, GMCL1 /// GMCL1P1 / Fold change vs veh, GMCL1 /// GMCL1P1 / RFU, AEBP2 / Fold change vs veh, AEBP2 / RFU, SNHG1 /// SNORD22 /// SNORD25 /// SNORD26 /// SNORD27 /// SNORD28 /// SNORD29 /// SNORD31 / Fold change vs veh, SNHG1 /// SNORD22 /// SNORD25 /// SNORD26 /// SNORD27 /// SNORD28 /// SNORD29 /// SNORD31 / Fold change (Aza/veh), C12orf56 (ProbeSet 11735607_a_at) / Fold change (ACY-1035/veh), C12orf56 (ProbeSet 11735607_a_at) / Fold change (Aza/veh), FGFR1OP (ProbeSet 11751329_s_at) / Fold change (ACY-1035/veh), FGFR1OP (ProbeSet 11751329_s_at) / Fold change (Aza/veh), VPS36 (ProbeSet 11739960_a_at) / Fold change (ACY-1035/veh), VPS36 (ProbeSet 11739960_a_at) / RFU SYPL1 (11715823_x_at) / Fold change /veh SYPL1 (11715823_x_at) / RFU IGFBP7 (11715501_s_at) / Fold change /veh IGFBP7 (11715501_s_at) / RFU REEP3 (11722064_at) / Fold change /veh REEP3 (11722064_at) / RFU IGLL1 (11728026_x_at) / Fold change /veh IGLL1 (11728026_x_at): dose or concentration left out as unconfirmed
Settings: ProbeSet 11756954_s_at; LIST B

SMILES: Nc1ccc(-c2cccs2)cc1NC(=O)c1ccc2c(c1)cc(C1CC1)n2CCN1CCOCC1 [ACY-1035]
- RFU, ZEB2: 1361.36 RFU
